From publication PMC9221509, “Discovery of a Novel Antimicrobial Peptide, Temporin-PKE, from the Skin Secretion of Pelophylax kl. esculentus, and Evaluation of Its Structure-Activity Relationships” (Biomolecules, 2022)
Like-named read-outs stand apart in the source and are kept apart here. Non-standard residues stand in square brackets, D forms with d. Residues, ends and D or L forms follow the SMILES beside them. No end group written: not given here.

Key:
[1] = test system: E. coli (ATCC CRM 8739) biofilm; assay type: cell-based, Escherichia coli; details: ATCC CRM 8739, 24 h
Protocol: (§1) The anti-biofilm activities of the peptides against S. aureus (ATCC 6538), MRSA (NCTC 12493), E. faecalis (NCTC 12697), E. coli (ATCC CRM 8739), K. pneumoniae (ATCC 43816), and P. aeruginosa (ATCC CRM 9027), were evaluated. For the MBIC assay, 99 µL of bacterial suspension (5 × 10^5 CFU/mL) was mixed with 1 µL of serial dilutions (from 100 µM to 51,200 µM) of temporin-PKE and its analogues in a 96-well plate, and the plate was incubated in a moist shaking incubator at a speed of 200 rpm at 37 °C for 24 h. For the MBEC assay, 100 µL of bacterial suspension (5 × 10^5 CFU/mL) in each well was seeded in a new 96-well plate, and the plate was put into the same shaking incubator for 24 h incubation to allow biofilm formation on the well. After biofilm formation, the biofilm in the plate was washed with PBS twice. The PBS was aspirated between washes to remove planktonic bacterial cells. The washed biofilm in each well was treated with 100 µL of serial dilutions (from 1 µM to 512 µM) of the test peptides. Then, the plate was incubated in the same shaking incubator for another 24 h. After being washed by PBS twice and fixed with methanol, the biofilm in each well was incubated with 100 µL of 0.1% crystal violet for 30 min, and the stained biofilm was dissolved in 100 µL of glacial acidic acid after drying. The solutions were transferred to a new microplate, and the absorbance of each well was measured using a microplate reader (EL808, Biolise BioTek, Winooski, VT, USA) set to 595 nm wavelength. The MBIC was the minimum concentration of the peptide showing no biofilm formation. The MBEC is the lowest concentration of the peptide capable of eradicating the mature biofilms, which had no biofilm in the well.

HaCaT cells = assay type: cell-based, human; details: 24 h
Protocol: The cytotoxicity of the peptides against the human epidermal keratinocyte line, HaCaT, was tested using the MTT cell viability assay as described in a previous study. The 100 µL of the cell suspension in a complete DMEM medium with a density of 10,000 cells/mL was seeded in a 96-well plate and incubated overnight at 37 °C in a humidified 5% CO2 atmosphere. After 4 h of starvation in a serum-free medium, 100 μL of serial dilutions (from 10^−9 M to 10^−4 M) of temporin-PKE and its analogues was added to each well, and the plate was incubated for 24 h. The serum-free medium and 0.1% Triton X-100 were used as the negative and positive control, respectively. Then, MTT solution, at a volume of 10 μL, was added to each well, and the plate was incubated for 2 h. After this, the medium was replaced by 100 μL of DMSO, and plates were put in the shaking incubator for 15 min. The absorbance of each well was measured using a microplate reader (EL808, Biolise BioTek, Winooski, VT, USA) set to a wavelength of 570 nm. The equation used to calculate the viability of the cells is shown below: Cell viability (%)=A−Ab/An−Ab×100% where A represents the absorbance of each treatment group, Ab represents the average absorbance of the wells in the blank control group (cells not exposed to the test peptide and MTT), and An represents the average absorbance of the wells in the negative control group (cells not exposed to the test peptide).

horse red blood cells = assay type: cell-based
Protocol: As a previous study described in detail, the haemolysis activity assays of peptides were conducted on defibrinated horse blood (TCS Biosciences Ltd., Buckingham, UK) with an erythrocyte suspension concentration of 2% (v/v). The 120 μL of peptide solution in a gradient concentration ranging from 1µM to 512 µM was mixed with the same volume of 2% horse red blood cell suspension, and the complex was incubated at 37 °C for 2 h. PBS and 0.1% Triton X-100 were chosen as the negative and positive control, respectively. After centrifugation at 900× g for 5 min, the absorbance of the supernatant was analysed using a microplate reader (EL808, Biolise BioTek, Winooski, VT, USA) set to a wavelength of 570 nm. The equation to calculate the haemolysis of the peptides is shown below: Haemolysis (%)=A−An/Ap−An×100% where A represents the absorbance of each treatment group, An represents the average absorbance of the negative control group, and Ap represents the average absorbance of the positive control group.

[2] = test system: S. aureus (ATCC 6538) biofilm; assay type: cell-based, Staphylococcus aureus; details: ATCC 6538, 24 h
Protocol: as §1

[3] = test system: MRSA (NCTC 12493) biofilm; assay type: cell-based, methicillin-resistant Staphylococcus aureus; details: NCTC 12493, 24 h
Protocol: as §1

[4] = test system: K. pneumoniae (ATCC 43816) biofilm; assay type: cell-based, Klebsiella pneumoniae; details: ATCC 43816, 24 h
Protocol: as §1

E. coli (ATCC BAA-2340) = assay: microbe, parasite or virus in culture; assay type: cell-based, Escherichia coli; details: for MBC: ATCC BAA-2340, 18 h; for MIC: ATCC BAA-2340, 24 h
Protocol: The antimicrobial activities of peptides were evaluated against the Gram-positive bacteria, S. aureus (ATCC 6538), methicillin-resistant Staphylococcus aureus (MRSA) (NCTC 12493), Enterococcus faecalis (E. faecalis) (NCTC 12697); the Gram-negative bacteria, E. coli (ATCC CRM 8739), Klebsiella pneumoniae (K. pneumoniae) (ATCC 43816), Pseudomonas aeruginosa (P. aeruginosa) (ATCC CRM 9027); and the yeast, Candida albicans (C. albicans) (ATCC CRM 10231). Clinical isolates of MRSA (B042 V2E1 A), E. coli (ATCC BAA-2340), K. pneumoniae (ATCC BAA-1705), and P. aeruginosa (B004 V2S2 B) were also used to determine their antimicrobial activities. The suspension of microorganisms in the logarithmic growth phase with a specific final density (Gram-negative and Gram-positive bacteria: 5 × 10^5 CFU/mL; yeast: 1 × 10^6 CFU/mL) was incubated with different peptide concentrations from 1 µM to 512 µM at 37 °C for 24 h. PBS was used as the negative control, and norfloxacin and amphotericin B were selected as the positive control for bacteria and yeast, respectively. Since the Norfloxacin had weak activities against P. aeruginosa (B004 V2S2 B) and K. pneumoniae (ATCC BAA 1705), gentamicin was used as the positive control for these two bacterial strains. The absorbance of each well was obtained using a microplate reader (EL808, Biolise BioTek, Winooski, VT, USA) set at 550 nm wavelength. The MIC value was the lowest concentration of a peptide that inhibits visible bacterial growth. Once the MIC values were determined, an aliquot from the bacterial culture exposed to the peptide at or above its MIC value was inoculated on a Mueller Hinton agar (MHA) and was incubated at 37 for 18 h. The MBC value was the lowest concentration of a peptide that kills 99.9% of bacteria.

Q: For “FLPLIIGALSSKLPKIF-NH2 [Temporin-PKE-K12]”, which MBIC [1] is on record?
A: 64 µM

Q: And the IC50 (HaCaT cells)?
A: 19 µM

Q: What about the HC50 (horse red blood cells) of the same compound?
A: 122.7 µM

Q: And the HC50 (horse red blood cells; red cells of horse, 2 h)?
A: 122.7 µM

Q: What about the MBIC [2] of the same compound?
A: 4 µM

Q: And the MBIC [3]?
A: 4 µM

Q: What about the MBIC [4] of the same compound?
A: 512/>512 μM

Q: What about the MBC (E. coli (ATCC BAA-2340)) of the same compound?
A: 16 µM

Q: What about the MIC (E. coli (ATCC BAA-2340)) of the same compound?
A: 16 µM

Q: What does the source list for `CC[C@@H](C)[C@@H](NC(=O)[C@H](CCCCN)NC(=O)[C@@H]1CCCN1C(=O)[C@H](CC(C)C)NC(=O)[C@H](CC(C)C)NC(=O)[C@H](CO)NC(=O)[C@H](CO)NC(=O)[C@H](CC(C)C)NC(=O)[C@H](C)NC(=O)CNC(=O)[C@H](NC(=O)[C@H](NC(=O)[C@H](CC(C)C)NC(=O)[C@@H]1CCCN1C(=O)[C@H](CC(C)C)NC(=O)[C@@H](N)Cc1ccccc1)[C@H](C)CC)[C@H](C)CC)C(=O)N[C@@H](Cc1ccccc1)C(N)=O` [Temporin-PKE-3i] (H-FLPL[dI][dI]GALSSLLPK[dI]F-NH2)?
A: MBIC [1]: >512 µM; IC50 (HaCaT cells): 497 µM; HC50 (horse red blood cells; red cells of horse, 2 h): 64.0 µM; MBIC [2]: 64 µM; MBIC [3]: 64 µM; MBIC [4]: >512 µM; MBC (E. coli (ATCC BAA-2340); read-out: MBC): >512 µM; MIC (E. coli (ATCC BAA-2340); read-out: MIC): >512 µM

Q: FLPKIIGKLSSLLPKIF-NH2 [Temporin-PKE-3K] was tested. Which MBIC [1] did it give?
A: 16 µM

Q: And the IC50 (HaCaT cells)?
A: 29.6 µM

Q: What about the HC50 (horse red blood cells) of the same compound?
A: 87.47 µM

Q: What about the HC50 (horse red blood cells; red cells of horse, 2 h) of the same compound?
A: 87.47 µM

Q: And the MBIC [2]?
A: 2 µM

Q: And the MBIC [3]?
A: 2 µM

Q: What about the MBIC [4] of the same compound?
A: 32 µM

Q: What about the MBC (E. coli (ATCC BAA-2340)) of the same compound?
A: 2 µM

Q: What about the MIC (E. coli (ATCC BAA-2340)) of the same compound?
A: 2 µM

Q: For FLPLIIGKLSSLLPKIF-NH2 [Temporin-PKE-2K], which MBIC [1] is on record?
A: 64 µM

Q: What about the IC50 (HaCaT cells) of the same compound?
A: 9.04 µM

Q: What about the “HC50 relative to that of temporin-PKE” value (horse red blood cells) of the same compound?
A: 3 fold

Q: What about the HC50 (horse red blood cells; red cells of horse, 2 h) of the same compound?
A: 19.87 µM

Q: And the MBIC [2]?
A: 2 µM

Q: And the MBIC [3]?
A: 2 µM

Q: What about the MBIC [4] of the same compound?
A: 128 µM

Q: And the MBC (E. coli (ATCC BAA-2340))?
A: 8 µM

Q: And the MIC (E. coli (ATCC BAA-2340))?
A: 8 µM

Q: Which results are given for `CC[C@@H](C)[C@@H](NC(=O)[C@H](CCCCN)NC(=O)[C@@H]1CCCN1C(=O)[C@H](CC(C)C)NC(=O)[C@H](CC(C)C)NC(=O)[C@H](CO)NC(=O)[C@H](CO)NC(=O)[C@H](CC(C)C)NC(=O)[C@H](C)NC(=O)CNC(=O)[C@@H](NC(=O)[C@@H](NC(=O)[C@H](CC(C)C)NC(=O)[C@@H]1CCCN1C(=O)[C@H](CC(C)C)NC(=O)[C@@H](N)Cc1ccccc1)[C@@H](C)CC)[C@@H](C)CC)C(=O)N[C@@H](Cc1ccccc1)C(N)=O` [Temporin-PKE-i] (H-FLPLIIGALSSLLPK[dI]F-NH2)?
A: MBIC [1]: >512 µM; IC50 (HaCaT cells): 11.9 µM; HC50 (horse red blood cells; red cells of horse, 2 h): 68.37 µM; MBIC [2]: 2 µM; MBIC [3]: 2 µM; MBIC [4]: >512 µM; MBC (E. coli (ATCC BAA-2340); read-out: MBC): >512 µM; MIC (E. coli (ATCC BAA-2340); read-out: MIC): >512 µM

Q: Which results are given for FLPLIIGALSSLLPKIF-NH2 [Temporin-PKE]?
A: MBIC [1]: >512 µM; IC50 (HaCaT cells): 5.04 µM; HC50 (horse red blood cells): 6.58 µM; HC50 (horse red blood cells; red cells of horse, 2 h): 6.58 µM; MBIC [2]: 2 µM; MBIC [3]: 4 µM; MBIC [4]: >512 µM; MBC (E. coli (ATCC BAA-2340); read-out: MBC): >512 µM; MIC (E. coli (ATCC BAA-2340); read-out: MIC): >512 µM

Q: For FLPKIIGKLSSKLPKIF-NH2 [Temporin-PKE-4K], which MBIC [1] is on record?
A: 128 µM

Q: What about the IC50 (HaCaT cells) of the same compound?
A: 251 µM

Q: What about the HC50 (horse red blood cells) of the same compound?
A: 1671 µM

Q: What about the HC50 (horse red blood cells; red cells of horse, 2 h) of the same compound?
A: 1671 µM

Q: What about the MBIC [2] of the same compound?
A: 32 µM

Q: And the MBIC [3]?
A: 32 µM

Q: What about the MBIC [4] of the same compound?
A: 256 µM

Q: What about the MBC (E. coli (ATCC BAA-2340); read-out: MBC) of the same compound?
A: 64 µM

Q: What about the MIC (E. coli (ATCC BAA-2340); read-out: MIC) of the same compound?
A: 32 µM
